Columns and labels:
Format in all cases: functional
Mus musculus [1] = experiment: Cognition enhancing activity was evaluated by mouse passive-avoidance test using Scopolamine as amnesing drug administered intraperitoneally
Mus musculus [2] = species: Mus musculus; experiment: Cognition enhancing activity was evaluated by mouse passive-avoidance test using Scopolamine as amnesing drug after 1st day
Mus musculus [3] = species: Mus musculus; experiment: Cognition enhancing activity was evaluated by mouse passive-avoidance test using Scopolamine as amnesing drug after 2nd day
Mus musculus [4] = species: Mus musculus; experiment: Difference between entry latency of cognition enhancing activity between 2nd day and 1st day

Row | Structure (SMILES) | Min effective dose (Mus musculus [1]) [mg/kg] | Entry latency (Mus musculus [2]) [s] | Entry latency (Mus musculus [3]) [s] | Entry latency (Mus musculus [4]) [s]
1 | CC(=O)N1CCN(S(=O)(=O)c2ccc(F)cc2)CC1 | 0.01 | – | – | –
2 | CCC(=O)NC1CCN(C(=O)c2ccccc2)CC1 | 0.1 | 18 | 121 | 103
3 | CC(=O)NC1CCN(C(=O)c2ccccc2)CC1 | 10 | 12.8 | 113.5 | 100.7
4 | CCC(=O)NC1CCN(S(=O)(=O)C(C)C)CC1 | 10 | 14.2 | 102.8 | 88.6
5 | NC(=O)CN1CCCC1=O | 30 | – | – | –
6 | CCC(=O)N1CCC(NS(=O)(=O)C(C)C)CC1 | 10 | 14.5 | 96.9 | 82.4
7 | CCC(=O)NC1CCN(S(=O)(=O)c2ccc(F)cc2)CC1 | 0.1 | 17.6 | 103.4 | 85.8
8 | CCC(=O)N1CCC(NS(=O)(=O)c2ccc(F)cc2)CC1 | 10 | 15.6 | 108.2 | 103
9 | CC(=O)N1CCC(NS(=O)(=O)c2ccc(F)cc2)CC1 | 0.1 | 23.5 | 126.8 | 92.6
10 | CCC(=O)N1CCC(NC(=O)c2ccccc2)CC1 | 0.1 | 19.7 | 122.8 | 103.1
11 | CN1[C@@H]2C[C@@H](OC(=O)[C@H](CO)c3ccccc3)C[C@H]1[C@@H]1O[C@@H]12 [SCOPOLAMINE] | 1.5 | – | 44.5 | 27.9
12 | CC(=O)N1CCN(C(=O)c2ccccc2)CC1 | 10 | – | – | –
13 | CC(=O)N1CCC(NS(=O)(=O)C(C)C)CC1 | 10 | 15.1 | 99.3 | 84.2
14 | CCC(=O)N1CCN(S(=O)(=O)c2ccc(F)cc2)CC1 | 0.01 | – | – | –
15 | CC(=O)NC1CCN(S(=O)(=O)c2ccc(F)cc2)CC1 | 0.01 | 14.5 | 90.6 | 76.1
16 | CCC(=O)N1CCN(C(=O)c2ccccc2)CC1 | 0.01 | – | – | –
17 | CC(=O)NC1CCN(S(=O)(=O)C(C)C)CC1 | 1 | 14.3 | 89.7 | 75.4
